These results are taken from US8334382B2, “Substituted biaryl piperazinyl-pyridine analogues” (Neurogen Corporation, priority 2004, dated 2012).

This experiment concerns the target T1, human capsaicin receptor (Homo sapiens, UniProt Q8NER1).
T1 construct: expressed in transfected cells; host or cells: HEK293, stably transfected with pBK-CMV construct
As to the kind of experiment: Calcium mobilization assay, determination of antagonist activity. The following applies: capsaicin at EC50; cells expressing human capsaicin receptor; Example 6. The format is cell-based. Summed up:
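IC50 is the antagonist level giving a 50% drop in the capsaicin (EC50) calcium signal, read by FLIPR in Fluo-3 AM-loaded stable HEK293 lines bearing full-length human receptor. Compounds at 1-5 µM final were preincubated 0.5-6 h, room temperature, dark, in KRH pH 7.4.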
In general terms: Calcium assays in cells follow changes in intracellular calcium, usually with a dye or a luminescent sensor.

T1 sequence (Q8NER1 whole entry): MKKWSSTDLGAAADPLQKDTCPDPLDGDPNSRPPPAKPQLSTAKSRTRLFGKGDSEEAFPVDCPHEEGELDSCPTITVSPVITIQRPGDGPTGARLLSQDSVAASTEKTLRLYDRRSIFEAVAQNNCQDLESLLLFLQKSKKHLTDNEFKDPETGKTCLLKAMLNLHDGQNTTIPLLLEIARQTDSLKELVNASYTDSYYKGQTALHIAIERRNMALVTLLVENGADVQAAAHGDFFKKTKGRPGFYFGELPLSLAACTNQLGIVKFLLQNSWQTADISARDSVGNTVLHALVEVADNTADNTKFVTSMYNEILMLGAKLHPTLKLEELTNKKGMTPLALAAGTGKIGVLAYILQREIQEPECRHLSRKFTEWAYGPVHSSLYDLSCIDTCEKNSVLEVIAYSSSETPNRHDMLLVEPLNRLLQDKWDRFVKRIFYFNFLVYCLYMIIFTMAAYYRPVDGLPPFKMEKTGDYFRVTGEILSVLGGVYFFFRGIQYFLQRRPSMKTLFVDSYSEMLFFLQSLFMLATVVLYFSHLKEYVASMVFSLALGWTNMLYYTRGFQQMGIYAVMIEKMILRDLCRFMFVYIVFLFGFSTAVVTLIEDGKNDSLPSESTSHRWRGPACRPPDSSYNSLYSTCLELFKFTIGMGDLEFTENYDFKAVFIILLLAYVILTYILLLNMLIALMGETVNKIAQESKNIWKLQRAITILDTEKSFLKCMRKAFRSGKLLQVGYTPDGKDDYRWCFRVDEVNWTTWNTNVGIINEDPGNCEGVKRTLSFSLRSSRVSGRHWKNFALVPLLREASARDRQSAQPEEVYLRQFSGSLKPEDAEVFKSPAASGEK

Consider `Cc1cc(C(=O)O)cnc1N1CCN(c2cc(-c3ccc(F)cc3)nc(N3CCCC3C)n2)[C@H](C)C1` (stereo partly drawn) [Example 34, 6-{4-[6-(4-Fluoro-phenyl)-2-(2-methyl-pyrrolidin-1-yl)-pyrimidin-4-yl]-3-(R)-methyl-piperazin-1-yl}-5-methyl-nicotinic acid], for which the IC50 – broadly, the point on the concentration scale where inhibition reaches its midpoint – is ≤ 1 µM.

With `C[C@@H]1CN(c2ncc(C(=O)N3CCC[C@H]3CO)cc2Cl)CCN1c1cc(-c2ccc(F)cc2)nc(N2CCC[C@H]2CO)n1` [Example 155, (5-Chloro-6-{4-[6-(4-fluoro-phenyl)-2-(2-(S)-hydroxymethyl-pyrrolidin-1-yl)-pyrimidin-4-yl]-3-(R)-methyl-piperazin-1-yl}-pyridin-3-yl)-(2-(S)-hydroxymethyl-pyrrolidin-1-yl)-methanone], the IC50 is ≤ 1 µM.

For the compound `Cc1cc(C(N)=O)cnc1N1CCN(c2cc(-c3ccnc(C(C)C)c3)nc(N3CCCC3C)n2)CC1` (stereo not shown) [Example 90, 6-{4-[6-(2-Isopropyl-pyridin-4-yl)-2-(2-methyl-pyrrolidin-1-yl)-pyrimidin-4-yl]-piperazin-1-yl}-5-methyl-nicotinamide], the IC50 was ≤ 1 µM.

Take `Cc1cc(C(N)=O)cnc1N1CCN(c2cc(-c3ccccc3)nc(N(C)C)n2)[C@H](C)C1` [Example 84, 6-[4-(2-Dimethylamino-6-phenyl-pyrimidin-4-yl)-3-(R)-methyl-piperazin-1-yl]-5-methyl-nicotinamide]: the IC50 was ≤ 1 µM.

On to `COCCNC(=O)c1cnc(N2CCN(c3cc(-c4ccc(F)cc4)nc(N4CCCC4C)n3)CC2)c(C)c1` (stereo not shown) [Example 109, 6-{4-[6-(4-fluorophenyl)-2-(2-methylpyrrolidin-1-yl)pyrimidin-4-yl]piperazin-1-yl}-N-(2-methoxyethyl)-5-methylnicotinamide], for which the IC50 was ≤ 1 µM.

In the case of `CCOC(=O)c1cnc(N2CCN(c3cc(-c4ccc(F)c(Cl)c4)ncn3)[C@H](C)C2)c(Cl)c1` [Example 79, 5-Chloro-6-{4-[6-(3-chloro-4-fluoro-phenyl)-pyrimidin-4-yl]-3-(R)-methyl-piperazin-1-yl}-nicotinic acid ethyl ester], the IC50 is ≤ 1 µM.

With `C[C@@H]1CN(c2ncc(C(=O)NCCO)cc2Cl)CCN1c1cc(-c2ccccc2)nc(N2CCC[C@H]2CO)n1` [Example 166, 5-Chloro-N-(2-hydroxy-ethyl)-6-{4-[2-(2-(S)-hydroxymethyl-pyrrolidin-1-yl)-6-phenyl-pyrimidin-4-yl]-3-(R)-methyl-piperazin-1-yl}-nicotinamide], the IC50 was ≤ 1 µM.

On to `CCOC(=O)c1cnc(N2CCN(c3cc(-c4ccnc(C(C)C)c4)nc(N4CCCC4C)n3)CC2)c(C)c1` (stereo not shown) [Example 57, 6-{4-[6-(2-Isopropyl-pyridin-4-yl)-2-(2-methyl-pyrrolidin-1-yl)-pyrimidin-4-yl]-piperazin-1-yl}-5-methyl - nicotinic acid ethyl ester], for which the IC50 is ≤ 1 µM.

In the case of `CCCN1CCN(c2nc(-c3ccc(F)c(Cl)c3)cc(N3CCN(c4ncc(C(=O)O)cc4Cl)CC3)n2)CC1` [Example 17, 5-Chloro-6-{4-[6-(3-chloro-4-fluoro-phenyl)-2-(4-propyl-piperazin-1-yl)-pyrimidin-4-yl]-piperazin-1-yl}-nicotinic acid], the IC50 is ≤ 1 µM.

As to `O=[N+]([O-])c1cccnc1N1CCN(c2cc(-c3ccc(F)c(Cl)c3)nc(N3CCOCC3)n2)CC1` [Example 4, 4-{4-(3-Chloro-4-fluoro-phenyl)-6-[4-(3-nitro-pyridin-2-yl)-piperazin-1-yl]-pyrimidin-2-yl}-morpholine], the IC50 was ≤ 1 µM.

Consider `CCOC(=O)c1cnc(N2CCN(c3cc(-c4ccccc4)nc(N4CCCC4C)n3)CC2)c(C)c1` (stereo not shown) [Example 54, 5-Methyl-6-{4-[2-(2-methyl-pyrrolidin-1-yl)-6-phenyl-pyrimidin-4-yl]-piperazin-1-yl}-nicotinic acid ethyl ester], for which the IC50 is ≤ 1 µM.

For `Cc1cc(C(=O)N2CCC(N(C)C)C2)cnc1N1CCN(c2cc(-c3ccc(F)cc3)nc(N3CCCC3C)n2)CC1` (stereo not drawn) [Example 139, l-[(6-{4-[6-(4-fluorophenyl)-2-(2-methylpyrrolidin-1-yl)pyrimidin-4-yl]piperazin-1-yl}-5-methylpyridin-3-yl)carbonyl]-N,N-dimethylpyrrolidin-3 amine], the IC50 is ≤ 1 µM.

On to `Cc1cc(C(=O)O)cnc1N1CCN(c2cc(-c3ccc(F)cc3)nc(N3CCC[C@H]3C)n2)[C@@H](C)C1` [Example 170, 6-{4-[6-(4-Fluoro-phenyl)-2-(2-(R)-methyl-pyrrolidin-1-yl)-pyrimidin-4-yl]-3-(S)-methyl-piperazin-1-yl}-5-methyl-nicotinic acid], for which the IC50 was ≤ 1 µM.

`Cc1cc(CC(=O)OC(C)(C)C)cnc1N1CCN(c2cc(-c3ccc(F)cc3)nc(N3CCC[C@H]3C)n2)[C@H](C)C1` (relative stereo) [Example 190, tert-butyl rel-{6-[(3R)-4-{6-(4-fluorophenyl)-2-[(2R)-2-methylpyrrolidin-1-yl]pyrimidin-4-yl}-3-methylpiperazin-1-yl]-5-methylpyridin-3-yl}acetate]: the IC50 is ≤ 1 µM.

Regarding `O=C(O)c1cnc(N2CCN(c3cc(-c4ccc(F)cc4)nc(N4CCC[C@H]4CO)n3)CC2)c(Cl)c1` [Example 158, 5-Chloro-6-{4-[6-(4-fluoro-phenyl)-2-(2-(S)-hydroxymethyl-pyrrolidin-1-yl)-pyrimidin-4-yl]-piperazin-1-yl}-nicotinic acid], the half-inhibitory concentration (IC50) was ≤ 1 µM.

On to `CC1CCCN1c1nc(-c2ccc(F)cc2)cc(N2CCN(c3ncc(CO)cc3Cl)CC2)n1` (stereo not shown) [Example 26, (5-Chloro-6-{4-[6-(4-fluoro-phenyl)-2-(2-methyl-pyrrolidin-1-yl)-pyrimidin-4-yl]-piperazin-1-yl}-pyridin-3-yl)-methanol], for which the IC50 was ≤ 1 µM.

Take `Cc1cc(C(=O)N(C)C2CCN(C)C2)cnc1N1CCN(c2cc(-c3ccc(F)cc3)nc(N3CCCC3C)n2)CC1` (stereo not shown) [Example 138, 6-{4-[6-(4-fluorophenyl)-2-(2-methylpyrrolidin-1-yl)pyrimidin-4-yl]piperazin-1-yl}-N,5-dimethyl-N-(1-methylpyrrolidin-3-yl)nicotinamide]: the IC50 was ≤ 1 µM.

With `Cc1cccc(-c2cc(N3CCN(c4ncc(CO)cc4C)C[C@H]3C)nc(N3CCCC3C)n2)c1` (stereo partly drawn) [Example 64, (5-Methyl-6-{3-(R)-methyl-4-[2-(2-methyl-pyrrolidin-1-yl)-6-m-tolyl-pyrimidin-4-yl]-piperazin-1-yl}-pyridin-3-yl)-methanol], the IC50 is ≤ 1 µM.

Take `COCCN1CCN(C(=O)c2cnc(N3CCN(c4cc(-c5ccc(F)cc5)nc(N5CCCC5C)n4)CC3)c(C)c2)CC1` (stereo not shown) [Example 132, 4-(4-fluorophenyl)-6-[4-(5-{[4-(2-methoxyethyl)piperazin-1-yl]carbonyl}-3-methylpyridin-2-yl)piperazin-1-yl]-2-(2-methylpyrrolidin-1-yl)pyrimidine]: the IC50 was ≤ 1 µM.

For `Cc1cc(C(N)=O)cnc1N1CCN(c2cc(-c3ccc(F)cc3)nc(N3CCCC3C)n2)CC1` (stereo not shown) [Example 45, 6-{4-[6-(4-Fluoro-phenyl)-2-(2-methyl-pyrrolidin-1-yl)-pyrimidin-4-yl]-piperazin-1-yl}-5-methyl-nicotinamide], the IC50 is ≤ 1 µM.

On to `CC1CCCN1c1nc(-c2ccc(F)c(Cl)c2)cc(N2CCN(c3ncc(CO)cc3Cl)C[C@H]2C)n1` (stereo partly drawn) [Example 13, (5-Chloro-6-{4-[6-(3-chloro-4-fluoro-phenyl)-2-(2-methyl-pyrrolidin-1-yl)-pyrimidin-4-yl]-3-(R)-methyl-piperazin-1-yl}-pyridin-3-yl)-methanol], for which the IC50 was ≤ 1 µM.

Take `Cc1cc(C(=O)N(C)C2CCCCC2)cnc1N1CCN(c2cc(-c3ccc(F)cc3)nc(N3CCCC3C)n2)CC1` (stereo not shown) [Example 129, N-cyclohexyl-6-{4-[6-(4-fluorophenyl)-2-(2-methylpyrrolidin-1-yl)pyrimidin-4-yl]piperazin-1-yl}-N,5-dimethylnicotinamide]: the IC50 is ≤ 1 µM.

Regarding `CC(C)c1cc(-c2cc(N3CCN(c4ncc(CO)cc4Cl)C[C@H]3C)nc(N3CCCC3C)n2)ccn1` (stereo partly drawn) [Example 50, (5-Chloro-6-{4-[6-(2-isopropyl-pyridin-4-yl)-2-(2-methyl-pyrrolidin-1-yl)-pyrimidin-4-yl]-3-(R)-methyl-piperazin-1-yl}-pyridin-3-yl)-methanol], the IC50 was ≤ 1 µM.

As to `Cc1cc(C(=O)O)cnc1N1CCN(c2cc(-c3ccc(F)cc3)nc(N(C)C(C)C)n2)[C@H](C)C1` [Example 153, 6-{4-[6-(4-Fluoro-phenyl)-2-(isopropyl-methyl-amino)-pyrimidin-4-yl]-3-(R)-methyl-piperazin-1-yl}-5-methyl-nicotinic acid], the IC50 was ≤ 1 µM.

With `Cc1cc(CO)cnc1N1CCN(c2cc(-c3ccc(F)cc3)nc(N(C)C)n2)[C@H](C)C1` [Example 67, (6-{4-[2-Dimethylamino-6-(4-fluoro-phenyl)-pyrimidin-4-yl]-3-(R)-methyl-piperazin-1-yl}-5-methyl-pyridin-3-yl)-methanol], the IC50 was ≤ 1 µM.

On to `COCCCNC(=O)c1cnc(N2CCN(c3cc(-c4ccc(F)cc4)nc(N4CCCC4C)n3)CC2)c(C)c1` (stereo not shown) [Example 110, 6-{4-[6-(4-fluorophenyl)-2-(2-methylpyrrolidin-1-yl)pyrimidin-4-yl]piperazin-1-yl}-N-(3-methoxypropyl)-5-methylnicotinamide], for which the IC50 is ≤ 1 µM.

With `Cc1cccnc1N1CCN(c2nc(N3CCC[C@H]3C)nc(-c3ccc(F)cc3)c2F)[C@H](C)C1` [Example 189, 5-fluoro-4-(4-fluorophenyl)-6-[(2R)-2-methyl-4-(3-methylpyridin-2-yl)piperazin-1-yl]-2-[(2R)-2-methylpyrrolidin-1-yl]pyrimidine], the IC50 is ≤ 1 µM.

With `Cc1cc(C(=O)O)cnc1N1CCN(c2cc(-c3ccc(F)cc3)nc(N3CCOC[C@H]3C)n2)[C@H](C)C1` [Example 150, 6-{4-[6-(4-Fluoro-phenyl)-2-(3-(R)-methyl-morpholin-4-yl)-pyrimidin-4-yl]-3-(R)-methyl-piperazin-1-yl}-5-methyl-nicotinic acid], the IC50 is ≤ 1 µM.
